“Also recorded” adds a separate entry of the source.
Experiments:
B16BL6 melanoma cells = assay: metastasis of B16BL6 melanoma cells (lung metastatic deposits in mice); type: in vivo, mouse; details: BL6 cells injected into mice; irrespective of route or timing
Protocol: BL6 cells were injected into mice and metastatic deposits in the lung were assessed after various treatments including route and timing, of administration.

water solubility = type: physicochemical; details: particularly at physiologic pH
BL6 cells = assay: tritiated thymidine incorporation, cell growth; type: cell-based, mouse; details: BL6 cells in vitro
Protocol: (§1) An in vitro assay relying on tritiated thymidine incorporation can be used to ascertain the effect of various compounds on cell proliferation. Briefly, tumor cells are seeded in flat bottom 96 well plates (Corning, N.Y.) at a concentration of 2×10^4 cells per well. The cells were cultured for 2 days in DMEM containing various concentrations of sphingoid which was added as a PBS solution. The medium then was supplemented with tritiated thymidine at a concentration of 0.5 μCi per well. Following a six hour incubation the cells were collected using the PHD Cell Harvester (Cambridge Technology, Cambridge, Mass.) and amounts of incorporated radioactivity were determined after adding a suitable cell lysing agent and scintillation cocktail, such as ScintiVerse BD (Fisher Scientific, Fairlawn, Calif.) which performs both functions.
(§2) Certain cancer cells show a higher metastatic potential and invasive capability than others. For example, in the mouse, the BL6 and F10 melanoma cell lines are highly metastatic and invasive. On the other hand, the F1 variant is much less metastatic and invasive (I. R. Hart et al., Amer. J. Pathol., 97, 587-592 (1979); G. Poote et al., Cancer Res. 42, 2770-2778 (1982); F1 and F10 clones from ATCC CRL 6323, and CRL 6475, respectively). BL6 and F1 cells were tested in vitro as described above. […]

F1 cells = assay: tritiated thymidine incorporation, cell growth; type: cell-based, mouse; details: F1 cells in vitro
Protocol: as §1, §2

[1] = system: 40 kD (or 47 kD) platelet protein; assay: phosphorylation of platelet protein on thrombin stimulation; type: cell-based
Description: On thrombin stimulation, a 40 kD (or 47 kD) platelet protein is phosphorylated. […] While not wanting to be bound by their statement, the inventors believe that absence of phosphorylated 40 kD (or 47 kD) protein prevents platelet aggregation.

[2] = system: 47 kDa and 65 kDa proteins; assay: PMA-stimulated protein phosphorylation in 32P-labeled neutrophils; type: cell-based, human; details: neutrophils pre-incubated with 15-45 μM, then 1.5 μM PMA
Protocol: Excess unbound components were removed by centrifugation and the pellets were resuspended in the same buffer, repeating twice. The cells then were divided into 7 treatment groups, each containing ≈1×10^7 cells in a total volume of 0.4 ml. TMS, SPN or DMS was added to a suspension and incubated at 37° C. for 10 min, followed by addition of PMA to a final concentration of 1.5 μM. Two minutes later, the reaction was terminated by adding 0.1 ml of Laemmli sample buffer and 20 mM EDTA, followed by heating at 100° C. for 5 min. Aliquots were separated through 10% sodium dodecyl sulfate gels using known procedures. ^32 P incorporation was visualized by autoradiography.

- water solubility (water solubility): highly water soluble
SMILES: CCCCCCCCCCCCC/C=C/C(O)C(CO)[N+](C)(C)C (stereo not drawn) [TMS, N,N,N-trimethylsphingosine]
- lung colonization and tumor development (B16BL6 melanoma cells): effective in suppressing
- inhibiting cell growth (BL6 cells): more effective than DMS and sphingosine
- inhibiting cell growth (F1 cells): more effective than DMS and sphingosine
- phosphorylation of the 40 kD (or 47 kD) platelet protein [1]: inhibits phosphorylation
- phosphorylation of 47 kDa and 65 kDa proteins [2]: diminished significantly; also recorded: had an affect on phosphorylation

Source: patent US6031135A, “Trimethylsphingosine derivatives” (Oncomembrane, Inc., priority 1996, dated 2000)
